Experimental data as given in ChEMBL document CHEMBL1201862, “PubChem BioAssay data set” (2004).
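Exposure lasted 48 hours, with cells grown in 96-well plates and compounds tested at five concentrations. GI50 = concentration required for 50% inhibition of growth.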 Active and inactive are the calls of the source. No stated cut-off is given here; in the data, active = GI50 up to about 1.1 µM and inactive = higher.

Legend:
Assay in all cases: NCI anticancer screen, dose series, 48 h
[1] = test system: OVCAR-5
[2] = test system: SW-620
[3] = test system: RPMI-8226
[4] = test system: MDA-MB-435
[5] = test system: T47D
[6] = test system: CAKI-1
[7] = test system: HCT-15
[8] = test system: MOLT-4
[9] = test system: HCT-116
[10] = test system: UACC-62
[11] = test system: HOP-62
[12] = test system: UACC-257
[13] = test system: DU-145
[14] = test system: NCI-H226
[15] = test system: SF-539
[16] = test system: NCI/ADR-RES
[17] = test system: SK-OV-3
[18] = test system: PC-3
[19] = test system: MDA-MB-231
[20] = test system: KM12
[21] = test system: A498
[22] = test system: SK-MEL-2
[23] = test system: NCI-H460
[24] = test system: HCC 2998
[25] = test system: HL-60
[26] = test system: UO-31
[27] = test system: COLO 205
[28] = test system: OVCAR-4
[29] = test system: A549
[30] = test system: Hs-578T
[31] = test system: HT-29
[32] = test system: TK-10
[33] = test system: MCF7
[34] = test system: LOX IMVI
[35] = test system: CCRF-CEM
[36] = test system: OVCAR-3
[37] = test system: SNB-75
[38] = test system: SK-MEL-5
[39] = test system: SN12C
[40] = test system: SF-295
[41] = test system: SR
[42] = test system: 786-0
[43] = test system: RXF 393
[44] = test system: SK-MEL-28
[45] = test system: NCI-H522
[46] = test system: MDA-N
[47] = test system: ACHN
[48] = test system: M14
[49] = test system: OVCAR-8
[50] = test system: SNB-19
[51] = test system: U-251
[52] = test system: K562
[53] = test system: NCI-H23
[54] = test system: SF-268
[55] = test system: HOP-92
[56] = test system: IGROV-1
[57] = test system: EKVX
[58] = test system: Malme-3M

## C/C(=N\Nc1nc2ccccc2[nH]1)c1ccncn1
[1]
  GI50: 4110 nM (inactive)
[2]
  GI50: 134 nM (active)
[3]
  GI50: 196 nM (active)
[4]
  GI50: 154 nM (active)
[5]
  GI50: 103 nM (active)
[6]
  GI50: 123 nM (active)
[7]
  GI50: 161 nM
[8]
  GI50: 170 nM (active)
[9]
  GI50: 113 nM (active)
[10]
  GI50: 76.4 nM (active)
[11]
  GI50: 95.1 nM (active)
[12]
  GI50: 1410 nM (inactive)
[13]
  GI50: 84.3 nM (active)
[14]
  GI50: 81.7 nM (active)
[15]
  GI50: 39.4 nM (active)
[16]
  GI50: 153 nM (active)
[17]
  GI50: 490 nM (active)
[18]
  GI50: 2610 nM (inactive)
[19]
  GI50: 3640 nM (inactive)
[20]
  GI50: 270 nM (active)
[21]
  GI50: 237 nM (active)
[22]
  GI50: 617 nM (active)
[23]
  GI50: 91.4 nM (active)
[24]
  GI50: 18500 nM (inactive)
[25]
  GI50: 18.3 nM (active)
[26]
  GI50: 114 nM (active)
[27]
  GI50: 128 nM (active)
[28]
  GI50: 324 nM (active)
[29]
  GI50: 151 nM (active)
[30]
  GI50: 80000 nM (inactive)
[31]
  GI50: 81.8 nM (active)
[32]
  GI50: 3430 nM (inactive)
[33]
  GI50: 152 nM (active)
[34]
  GI50: 94.2 nM (active)
[35]
  GI50: 77.6 nM (active)
[36]
  GI50: 250 nM (active)
[37]
  GI50: 352 nM (active)
[38]
  GI50: 157 nM (active)
[39]
  GI50: 275 nM (active)
[40]
  GI50: 115 nM (active)
[41]
  GI50: 81.1 nM (active)
[42]
  GI50: 69.3 nM (active)
[43]
  GI50: 413 nM (active)
[44]
  GI50: 396 nM (active)
[45]
  GI50: 104 nM (active)
[46]
  GI50: 698 nM (active)
[47]
  GI50: 44.1 nM (active)
[48]
  GI50: 95.1 nM (active)
[49]
  GI50: 124 nM (active)
[50]
  GI50: 246 nM (active)
[51]
  GI50: 147 nM (active)
[52]
  GI50: 681 nM (active)
[53]
  GI50: 97.3 nM (active)
[54]
  GI50: 87.9 nM (active)
[55]
  GI50: 71.5 nM (active)
[56]
  GI50: 103 nM (active)
[57]
  GI50: 133 nM (active)
[58]
  GI50: 138 nM (active)
